This test relates to Spodoptera frugiperda. The test can be described thus: Spodoptera frugiperda test (SPODFR), spray treatment of maize plants. The format is in vivo. The note with it: 168 h, read-out: Mortality/% 7 d. As to the method: Spodoptera frugiperda—Test (SPODFR)
For the preparation of an expedient active ingredient preparation, 1 part by weight of active ingredient is mixed with the stated amounts of solvent and emulsifier, and the concentrate is diluted with emulsifier-containing water to the desired concentration. If it is necessary to add ammonium salts or ammonium salts and penetration promoter, the corresponding amount is pipetted into each of the ready preparation solution after the dilution.
Maize plants (Zea mais) are treated with the active ingredient preparation in the desired concentration by spraying and are populated with caterpillars of the fall armyworm (Spodoptera frugiperda) as long as the leaves are still moist.
After the desired time, the kill in % is determined. 100% means that all caterpillars were killed; 0% means that no caterpillars were killed.

On to `Cc1cc(C(F)(C(F)(F)F)C(F)(F)F)ccc1NC(=O)c1cccc(Cl)c1C(=O)N[C@@H](C)CS(C)(=O)=O` [(Ib)], for which the mortality at 0.192 g/ha amounted to 70%.

(Values after US20090093544A1, “INSECTICIDAL COMPOSITIONS HAVING IMPROVED EFFECT” (Bayer CropScience AG, priority 2005, published 2009).)
